The values that follow come from patent publication US12398110B2, “Second generation inhibitors of mitochondrial permeability transition pore with improved plasma stability” (Oregon Health & Science University, priority 2019, dated 2025).

The subject of data set [1] is col6a1 zebrafish morphants. Kind of data set: Survival of col6a1 zebrafish morphants. It counts as in vivo. From the text: In FIG. 6D, the left panel represents data from embryos injected with a scrambled morpholino (scrd_MO, open squares), Exon 9 col6a1 morpholino (col6a1_MO, closed squares) and col6a1_MO embryos treated with TR001 at 0.1 μm (open circles), 1.0 μm (open triangles), 10 μm (open diamonds). Right panel represents data from embryos injected with a scrambled morpholino (scrd_MO, open squares), Exon 9 col6a1 morpholino (col6a1_MO, closed squares) and col6a1_MO embryos treated with 63 at […] (closed circles), 1.0 μm (closed triangles), 10 μm (closed diamonds). Embryos were treated with oligomycin, FCCP, rotenone (R) and antimycin A (A) as indicated. Results are presented as mean±SEM. Both graphs report data from 5 independent experiments with n=20 for each treatment. Error bars are reported as SEM. FIG. 6E, Survival of DMSO-treated zebrafish injected with the scrambled morpholino (open squares), DMSO-treated col6a1 morphants (closed squares) and col6a1 morphants treated with TR001 (0.1 μm, open triangles; 1.0 μm, open circles; 10 μm, open diamonds) or 63 (0.1 μm, closed triangles; 1.0 μm, closed circles; 10 μm, closed diamonds) were recorded for 30 days. Treatment started at 21 hpf and repeated at 4 dpf (arrows). Data report the percentage of surviving fish and are mean±SEM from 3 independent experiments (n=15 for each condition in each set).
Finally, fish survival was also assessed. Fifty percent of col6a1 morphant embryos treated with 0.1 μm of TR001 survived 7 days longer than col6a1 morphants treated with DMSO (p<0.0001 from 3 to 12 dpf), and 20% were still alive at 30 dpf (i.e., after 29 days of treatment) (FIG. 6E).
(§1) Morpholino antisense injection and treatment. Knock-down of col6a1 gene expression was obtained with a previously published morpholino ^[25] with sequence GAGAGCGGAAGACGAACCTTCATTC (SEQ ID NO: 2; GeneTools, Inc.). A control morpholino with no sequence homology in the zebrafish genome was used in parallel (CCTCTTACCTCAGTTACAATTTATA; SEQ ID NO: 3). Zebrafish eggs from wild-type matings were injected at the 1-2 cell stage with approximately 10 nL of 0.1 mm morpholino solution (corresponding to 4 ng of morpholino) using a WPI pneumatic PicoPump PV820 injector (World Precision Instruments, Inc.). Zebrafish embryos were dechorionated at 20 hours post fertilization (hpf) and treated at 21 hpf with increasing doses (0.1, 1 and 10 μm) of both TR001 and 63 compounds dissolved in fish water with 1% DMSO (vehicle).
Survival. Zebrafish survival was monitored every 3 days for 30 days. Drug treatment with both TR001 and 63 dissolved in fish water with 1% DMSO started at 21 hpf. After 3 days of treatment (4 days post fertilization, dpf), zebrafish were moved to a bigger tank (50 mL) with fresh compounds dissolved in 1% DMSO. As a control vehicle, fish water with 1% DMSO was used.

The subject of data set [2] is col6a1 zebrafish morphants. Description: OCR measurement on entire col6a1 morphant zebrafish embryos. The class given is in vivo. As to conditions: 48 hpf, 10 μm.
From the text: To test the effects of both TR001 and 63 on the respiration of col6a1 morphant embryos, we measured the OCR on entire embryos at 48 hpf. […] Moreover, TR001 at a concentration of 10 μm was able to fully restore the maximal respiratory capacity (FIG. 6D, left panel, open diamonds, p<0.001) of col6a1 morphants.
as §1, with “Zebrafish embryos were dechorionated at 20 hours post fertilization (hpf) and treated at 21 hpf with increasing doses (0.1, 1 and 10 μm) of both TR001 and 63 compounds dissolved in fish water with 1% DMSO (vehicle).” left out
OCR measurement. […] First, basal respiration was measured. Second, respiration due to ATP synthase was measured after addition of 10 μm oligomycin (Merck Millipore-495455). Third, maximal respiration capacity was measured by adding 2 μm of the uncoupler carbonyl cyanide-4-(trifluoromethoxy)phenylhydrazone (FCCP, Sigma-Aldrich, C2920). […]

A further data set has as its system HeLa cells. Description: HeLa cell viability assay. The class given is cell-based. To be noted: up to 50 μm, 24 h treatment. From the text:
A thorough evaluation of toxicity is critical for advancing TR001 to in vivo studies. […] To more thoroughly examine mitochondrial toxicity, we analyzed oxygen consumption rates (OCRs) using the Seahorse XF24 extracellular flux analyzer. This allowed us to assess the effects of TR001 on mitochondrial respiration and ATP synthesis. […] Consequently respiratory control ratios (i.e., the ratios between ADP-stimulated and basal respiration) were not affected across the concentrations tested (FIG. 5B). Complex III inhibitor antimycin A shuts down the electron transport chain at the bc1 complex and was used to account for oxygen leak.
Cell viability assay. HeLa cells were seeded at a density of 10^4 per well in 96-well plates and let to adhere for 6 h before treatment with varying concentrations of TR001 or vehicle (1% DMSO. After treatment for 24 h the relative viable cell number was determined with a CellTiter 96 Aqueous One Solution Cell Proliferation Assay Kit (Promega).

Take `Cc1ccc(Cl)cc1NC(=O)c1cn(-c2ccc(F)c(O)c2)nn1` [TR001, N-(5-chloro-2-methylphenyl)-1-(4-fluoro-3-hydroxyphenyl)-1H-1,2,3-triazole-4-carboxamide]: the “days longer survival of fifty percent of embryos than DMSO treated morphants” value in data set [1] (0.1 μm) was 7 days. Moreover, the “percent still alive at 30 dpf” value in data set [1] (0.1 μm, after 29 days of treatment) stood at 20%. For the same molecule, the “survival (in words)” value in data set [1] (1 μm) is recorded as “effective at improving survival rate”; in data set [1] (10 μm), “ineffective”. Further, in data set [2], the “maximal respiratory capacity (OCR) of col6a1 morphants” value is on record as “fully restore”. Besides, the HeLa cell viability result in the data set with HeLa cells is “did not exhibit any adverse effects”.
